Test results: PMC5587727 (Nucleic Acids Research, 2017)

Target: hDcp2 (Homo sapiens, UniProt Q8IU60)
Test: In vitro RNA decapping assay with hDcp2
Format: biochemical
Settings: RNA capped with the analogue; 15 min incubation; 100 ng capped RNA, 630 nM hDcp2

| Decapping susceptibility (% of RNA decapping) | Compound |
| --- | --- |
| 74 ± 3% | CO[C@H]1[C@@H](O)[C@H]([n+]2cn(C)c3c(=O)[nH]c(N)nc32)O[C@@H]1COP(=O)([O-])OP(=O)(O)OP(=O)(O)OC[C@H]1O[C@@H](n2cnc3c(=O)[nH]c(N)nc32)[C@H](O)[C@@H]1O [m2^7,3′-OGpppG] |
| 82 ± 2% | Cn1c[n+]([C@@H]2O[C@H](COP(=O)(O)OP(=O)([O-])OP(=O)(O)OC[C@H]3O[C@@H](n4cnc5c(=O)[nH]c(N)nc54)[C@H](O)[C@@H]3O)[C@@H](O)[C@H]2O)c2nc(N)[nH]c(=O)c21 [m^7GpppG] |
